Data set [1] concerns platelet aggregation (rat blood, platelet-rich plasma). Nature of the data set: Inhibition of platelet aggregation in vitro (rat blood). The class given is cell-based. The following applies: 0.1 h, Sprague-Dawley rat PRP, area under the curve of absorbance over 6 minutes. As for the experimental part: Inhibition of Platelet Aggregation In Vitro (Rat Blood) Blood is taken from male rats of the Sprague-Dawley strain, weighing 250-300 g. The sample is taken on 3.8% sodium citrate (1 volume for 9 blood volumes) by abdominal aortic puncture after the animal has been anesthetized with sodium pentobarbital. The platelet-rich plasma (PRP) is obtained by centrifugation of the blood at 300 g for 5 minutes, and the platelet aggregation measurements are carried out as described above. The results are calculated using the area under the curve of absorbance measured for 6 minutes, and expressed by the percentage inhibition. The platelet aggregation measurements are carried out at 37° C. in glass tubes (Chrono-Log aggregometer—Kordia). 4 μl of the test compound (solution 100 times more concentrated than the desired final concentration, in DMSO) are mixed with 392 μl of fresh PRP, and incubated for 1 minute with stirring. Then, 4 μl of a solution of ADP at 250 μM are added to the mixture. The aggregation measurements are monitored for 6 to 8 minutes, with constant stirring, by recording the variations in the optical density according to the method of G.V.R. BORN (Born Nature (1962) 194, 927).

Data set [2] has as its system platelet aggregation (human blood, platelet-rich plasma). Nature of the data set: Inhibition of platelet aggregation in vitro (human blood). In kind it is cell-based. The following applies: human PRP from healthy volunteers, ADP-induced, size of aggregation as height. As for the experimental part: Inhibition of Platelet Aggregation In Vitro (Human Blood) Blood is taken from healthy volunteers, using 20 ml syringes containing 2 ml of buffered sodium citrate. The blood is transferred into polypropylene tubes and centrifuged for 5 minutes (100 g) at ambient temperature (without using the brake of the centrifuge). The platelet-rich plasma (PRP) supernatant is then removed, diluted, and counted for platelets before being used in the aggregation measurements. The platelet aggregation measurements are carried out at 37° C. in glass tubes (Chrono-Log aggregometer—Kordia). 4 μl of the test compound (solution 100 times more concentrated than the desired final concentration, in DMSO) are mixed with 392 μl of fresh PRP, and incubated for 1 minute with stirring. Then, 4 μl of a solution of ADP at 250 μM are added to the mixture. The aggregation measurements are monitored for 6 to 8 minutes, with constant stirring, by recording the variations in the optical density according to the method of G.V.R. BORN (Born Nature (1962) 194, 927). The results are calculated using the size of the aggregation expressed as height, and expressed by the percentage inhibition.

For data set [3], the system named is platelet aggregation (rat blood, platelet-rich plasma). Description: Inhibition of platelet aggregation ex vivo (rat blood). In kind it is in vivo. As for the experimental part:
The platelet aggregation measurements are carried out at 37° C. in glass tubes (Chrono-Log aggregometer—Kordia). 4 μl of the test compound (solution 100 times more concentrated than the desired final concentration, in DMSO) are mixed with 392 μl of fresh PRP, and incubated for 1 minute with stirring. Then, 4 μl of a solution of ADP at 250 μM are added to the mixture. The aggregation measurements are monitored for 6 to 8 minutes, with constant stirring, by recording the variations in the optical density according to the method of G.V.R. BORN (Born Nature (1962) 194, 927). Inhibition of Platelet Aggregation Ex Vivo (Rat Blood) Male rats of the Sprague-Dawley strain, weighing 250-300 g, are used in a proportion of 6 animals per batch. Each test compound is diluted in a glucose solution (5% glucose) containing 5% of cremophor and 3% of glycofurol. […] The sample is taken on 3.8% sodium citrate (1 volume for 9 blood volumes) by abdominal aortic puncture after the animal has been anesthetized with sodium pentobarbital. The platelet-rich plasma (PRP) is obtained by centrifugation of the blood at 300 g for 5 minutes, and the platelet aggregation measurements are carried out as described above. The results are calculated using the area under the curve of absorbance measured for 6 minutes, and expressed by the percentage (%) inhibition.

Where [4] appears, read: oral gavage, t = 2 h after administration, read-out: Inhibition of platelet aggregation ex vivo (rat blood), Gavage (oral).

Counter-ions that a name gives are not always drawn. Like-named read-outs stand apart in the source and are kept apart here.

A word on the IC50: it is the concentration that gives 50% inhibition. Low readings indicate greater potency in that assay, high ones weaker potency in that assay. `CCCC(=O)c1cnn(C2CCN(NC(=O)c3cn(CC(=O)N4CCN(CCOC)CC4)c4ccc(Cl)cc34)CC2)c1C` [Compound 5, 5-Chloro-1-{2-[4-(2-methoxyethyl)piperazin-1-yl]-2-oxoethyl}-1H-indole-3-carboxylic acid [4-(4-butyryl-5-methylpyrazol-1-yl-piperidin-1-yl]amide hydrochloride] displayed an IC50 in data set [1] of 0.017 µM. For `CCCC(=O)c1cnn([C@H]2CC[C@H](NC(=O)c3cn(CC(=O)N4CCN(CCOC)CC4)c4ccc(Cl)cc34)CC2)c1C` [Compound 2, 5-Chloro-1-{2-[4-(2-methoxyethyl)piperazin-1-yl]-2-oxoethyl}-1H-indole-3-carboxylic acid [4-(4-butyryl-5-methylpyrazol-1-yl)cyclohexyl]-amide hydrochloride], the IC50 in data set [1] came to 0.08 µM.

As a reminder, the melting point is the temperature, or range, at which the solid turns liquid. For the compound `CCCC(=O)c1cnn([C@H]2CC[C@H](NC(=O)c3cn(CC(=O)N4CCN(CCC(F)(F)F)CC4)c4ccc(Cl)cc34)CC2)c1C` (as salt: hydrochloride) [Compound 3, 5-Chloro-1-{2-oxo-2-[4-(3,3,3-trifluoropropyl)piperazin-1-yl]ethyl}-1H-indole-3-carboxylic acid [4-(4-butyryl-5-methylpyrazol-1-yl)cyclohexyl]amide hydrochloride], the melting point came to 249 °C. Regarding `CCCC(=O)c1cnn([C@H]2CC[C@H](NC(=O)c3cn(CC(=O)N4CCN(CCC(F)(F)F)CC4)c4ccc(Cl)cc34)CC2)c1C` [Compound 3, 5-Chloro-1-{2-oxo-2-[4-(3,3,3-trifluoropropyl)piperazin-1-yl]ethyl}-1H-indole-3-carboxylic acid [4-(4-butyryl-5-methylpyrazol-1-yl)cyclohexyl]amide hydrochloride], it took 0.294 µM to reach half-maximal inhibition in data set [1] (IC50). A word on the inhibition: it is the share of the control response that was lost under treatment. Regarding `CCCC(=O)c1cnn([C@H]2CC[C@H](NC(=O)c3cn(CC(=O)N4CCN(C)CC4)c4ccc(Cl)cc34)CC2)c1C` [Compound 1, 5-Chloro-1-[2-(4-methylpiperazin-1-yl)-2-oxoethyl]-1H-indole-3-carboxylic acid [4-(4-butyryl-5-methyl-pyrazol-1-yl)-cyclohexyl]amide hydrochloride], the IC50 in data set [1] is 0.091 µM; in data set [2], 0.27 µM. Also, the inhibition at 3 mg/kg came to 79 ± 5% in data set [3] (0.5 h, intravenous infusion, 30 min after administration, read-out: Inhibition of platelet aggregation ex vivo (rat blood), Infusion (Intravenous)) and 42.8 ± 10.7% in data set [3] (setting [4]). In the case of `CCCC(=O)c1cnn(C2CCN(NC(=O)c3cn(CC(=O)N4CCN(CCOC(F)(F)F)CC4)c4ccc(Cl)cc34)CC2)c1C` [Compound 6, 5-Chloro-1-{2-oxo-2-[4-(2-trifluoromethoxyethyl)piperazin-1-yl]ethyl}-1H-indole-3-carboxylic acid [4-(4-butyryl-5-methylpyrazol-1-yl)piperidin-1-yl]amide hydrochloride], 0.046 µM corresponded to half-maximal inhibition in data set [1] (IC50). The compound `CCCC(=O)c1cnn([C@H]2CC[C@H](NC(=O)c3cn(CC(=O)N4CCN(CCOC)CC4)c4ccc(Cl)cc34)CC2)c1C` (as salt: hydrochloride) [Compound 2, 5-Chloro-1-{2-[4-(2-methoxyethyl)piperazin-1-yl]-2-oxoethyl}-1H-indole-3-carboxylic acid [4-(4-butyryl-5-methylpyrazol-1-yl)cyclohexyl]-amide hydrochloride] had a melting point of 263 °C. In the case of `CCCC(=O)c1cnn(C2CCN(NC(=O)c3cn(CC(=O)N4CCN(C)CC4)c4ccc(Cl)cc34)CC2)c1C` [Compound 4, 5 -Chloro-1-[2-(4-methylpiperazin-1-yl)-2-oxoethyl]-1H-indole-3-carboxylic acid [4-(4-butyryl-5-methylpyrazol-1-yl)piperidin-1-yl]amide hydrochloride], the IC50 was 0.043 µM in data set [1] and 0.025 µM in data set [2]. The compound further had an inhibition at 1 mg/kg in data set [3] (intravenous infusion, dose 1 mg/kg, t = 2 h after administration) of 88 ± 5%. Also, the inhibition at 3 mg/kg in data set [3] (setting [4]) was found to be 72 ± 15%.

These data come from patent US20150274703A1, “1H-Indole-3-Carboxamide Derivatives And Use Thereof As P2Y12 Antagonists” (SANOFI, priority 2012, published 2015).
